Test results: patent US11912686B2 (Gilead Sciences, Inc., priority 2020, dated 2024)

Biological target: human LPAR1 (Homo sapiens (Human), UniProt Q92633)
Test: LPAR1 intracellular calcium mobilization assay (antagonist mode, FLIPR)
Type: cell-based
Details: CHO-K1 EDG2 cells expressing human LPAR1, LPA 18:2 at EC80 (100 nM), test compound 0.5 nM to 10 μM

human LPAR1, sequence (Q92633 whole entry): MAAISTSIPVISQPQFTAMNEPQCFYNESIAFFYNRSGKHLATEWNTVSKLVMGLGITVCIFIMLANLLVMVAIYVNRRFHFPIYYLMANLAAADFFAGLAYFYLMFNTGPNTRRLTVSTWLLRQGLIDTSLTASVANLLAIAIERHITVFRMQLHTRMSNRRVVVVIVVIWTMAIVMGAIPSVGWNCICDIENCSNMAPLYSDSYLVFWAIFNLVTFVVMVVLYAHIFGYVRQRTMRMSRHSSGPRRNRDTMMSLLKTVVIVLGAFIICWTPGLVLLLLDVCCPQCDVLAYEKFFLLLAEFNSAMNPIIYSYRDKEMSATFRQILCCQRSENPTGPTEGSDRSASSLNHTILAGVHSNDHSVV

Question: How did the EC50 turn out when C[C@@H](OC(=O)Nc1c(-c2cnc(NC(=O)c3cnc(C(F)(F)F)nc3)cn2)nnn1C)c1cccnc1F [Compound 325, (R)-1-(2-fluoropyridin-3-yl)ethyl (1-methyl-4-(5-(2-(trifluoromethyl)pyrimidine-5-carboxamido)pyrazin-2-yl)-1H-1,2,3-triazol-5-yl)carbamate] was run?
Answer: 185 nM

Question: For C[C@@H](OC(=O)Nc1c(-c2ccc(NC(=O)c3ccc(Cl)nn3)cn2)nnn1C)c1cc(F)cnc1F [Compound 250, (R)-1-(2,5-difluoropyridin-3-yl)ethyl (4-(5-(6-chloropyridazine-3-carboxamido)pyridin-2-yl)-1-methyl-1H-1,2,3-triazol-5-yl)carbamate], which EC50 is on record?
Answer: 276 nM

Question: For COC(=O)Nc1ccc(-c2nnn(C)c2NC(=O)O[C@H](C)c2cccnc2Cl)cc1 [Compound 7, (R)-1-(2-chloropyridin-3-yl)ethyl (4-(4-((methoxycarbonyl)amino)phenyl)-1-methyl-1H-1,2,3-triazol-5-yl)carbamate], which EC50 is on record?
Answer: 315 nM

Question: C[C@@H](OC(=O)Nc1c(-c2ccc(NC(=O)[C@H]3C[C@@H]3c3ccccn3)cn2)nnn1C)c1cc(F)cnc1F [Compound 266, (R)-1-(2,5-difluoropyridin-3-yl)ethyl (1-methyl-4-(5-((1S,2S)-2-(pyridin-2-yl)cyclopropane-1-carboxamido)pyridin-2-yl)-1H-1,2,3-triazol-5-yl)carbamate] was tested. Which EC50 did it give?
Answer: 749 nM

Question: For C[C@@H](OC(=O)Nc1c(-c2ccc(NC(=O)C34CC(C(F)(F)F)(C3)C4)cn2)nnn1C)c1cccnc1Cl [Compound 72, (R)-1-(2-chloroypridin-3-yl)ethyl (1-methyl-4-(5-(3-(trifluoromethyl)bicyclo[1.1.1]pentane-1-carboxamido)pyridin-2-yl)-1H-1,2,3-triazol-5-yl)carbamate], which EC50 is on record?
Answer: 17 nM

Question: How did the EC50 turn out when C[C@@H](OC(=O)Nc1c(-c2ccc(NC(=O)C34CC(C(F)F)(C3)C4)cn2)nnn1C)c1cccnc1Cl [Compound 45, (R)-1-(2-chloropyridin-3-yl)ethyl (4-(5-(3-(difluoromethyl)bicyclo[1.1.1]pentane-1-carboxamido)pyridin-2-yl)-1-methyl-1H-1,2,3-triazol-5-yl)carbamate] was run?
Answer: 40.8 nM

Question: For C[C@@H](OC(=O)Nc1c(-c2ccc(NC(=O)[C@H]3C[C@H](O)C3)cn2)nnn1C)c1cccnc1Cl [Compound 154, (R)-1-(2-chloropyridin-3-yl)ethyl (4-(5-((1r,3R)-3-hydroxycyclobutane-1-carboxamido)pyridin-2-yl)-1-methyl-1H-1,2,3-triazol-5-yl)carbamate], which EC50 is on record?
Answer: 668 nM

Question: With C[C@@H](OC(=O)Nc1c(-c2ccc(NC(=O)C3CNC3)cn2)nnn1C)c1cccnc1Cl [Compound 38, (R)-1-(2-chloropyridin-3-yl)ethyl (4-(5-(azetidine-3-carboxamido)pyridin-2-yl)-1-methyl-1H-1,2,3-triazol-5-yl)carbamate] as the compound, how does the EC50 read?
Answer: 10000 nM

Question: C[C@@H](OC(=O)Nc1c(-c2ccc(NC(=O)C#CC3CC3)cn2)nnn1C)c1cccnc1Cl [Compound 75, (R)-1-(2-chloropyridin-3-yl)ethyl (4-(5-(3-cyclopropylpropiolamido)pyridin-2-yl)-1-methyl-1H-1,2,3-triazol-5-yl)carbamate] was tested. Which EC50 did it give?
Answer: 23.4 nM

Question: How did the EC50 turn out when C[C@@H](OC(=O)Nc1c(-c2ccc(NC(=O)c3ccc(C(F)(F)F)nc3)cn2)nnn1C)c1cccnc1F [Compound 296, (R)-1-(2-fluoropyridin-3-yl)ethyl (1-methyl-4-(5-(6-(trifluoromethyl)nicotinamido)pyridin-2-yl)-1H-1,2,3-triazol-5-yl)carbamate] was run?
Answer: 46.9 nM

Question: For C[C@@H](OC(=O)Nc1c(-c2ccc(NC=O)cn2)nnn1C)c1cccnc1Cl [Compound 16, (R)-1-(2-chloropyridin-3-yl)ethyl (4-(5-formamidopyridin-2-yl)-1-methyl-1H-1,2,3-triazol-5-yl)carbamate], which EC50 is on record?
Answer: 2180 nM

Question: With C[C@@H](OC(=O)Nc1c(-c2ccc(NC(=O)C3(C(F)F)CC3)cn2)nnn1C)c1cc(F)cnc1Cl [Compound 166, (R)-1-(2-chloro-5-fluoropyridin-3-yl)ethyl (4-(5-(1-(difluoromethyl)cyclopropane-1-carboxamido)pyridin-2-yl)-1-methyl-1H-1,2,3-triazol-5-yl)carbamate] as the compound, how does the EC50 read?
Answer: 238 nM

Question: How did the EC50 turn out when C[C@@H](OC(=O)Nc1c(-c2ccc(NC(=O)c3ccc(C(C)(F)F)nc3)cn2)nnn1C)c1cc(F)cnc1F [Compound 272, (R)-1-(2,5-difluoropyridin-3-yl)ethyl (4-(5-(6-(1,1-difluoroethyl)nicotinamido)pyridin-2-yl)-1-methyl-1H-1,2,3-triazol-5-yl)carbamate] was run?
Answer: 162 nM

Question: With C[C@@H](OC(=O)Nc1c(-c2ccc(NC(=O)C3(C)CC(F)(F)C3)cn2)nnn1C)c1cccnc1F [Compound 291, (R)-1-(2-fluoropyridin-3-yl)ethyl (4-(5-(3,3-difluoro-1-methylcyclobutane-1-carboxamido)pyridin-2-yl)-1-methyl-1H-1,2,3-triazol-5-yl)carbamate] as the compound, how does the EC50 read?
Answer: 157 nM

Question: How did the EC50 turn out when COC(=O)Nc1ccc(-c2nnn(C)c2NC(=O)O[C@H](CF)c2cccc(F)c2)nc1 [Compound 19, (S)-2-fluoro-1-(3-fluorophenyl)ethyl (4-(5-((methoxycarbonyl)amino)pyridin-2-yl)-1-methyl-1H-1,2,3-triazol-5-yl)carbamate] was run?
Answer: 276 nM

Question: C[C@@H](OC(=O)Nc1c(-c2ccc(NC(=O)C3CC(F)(C#N)C3)cn2)nnn1C)c1cccnc1Cl (stereo partly drawn) [Compound 123, (R)-1-(2-chloropyridin-3-yl)ethyl (4-(5-(3-cyano-3-fluorocyclobutane-1-carboxamido)pyridin-2-yl)-1-methyl-1H-1,2,3-triazol-5-yl)carbamate] was tested. Which EC50 did it give?
Answer: 626 nM

Question: C[C@@H](OC(=O)Nc1c(-c2ccc(NC(=O)c3cnc(C4CC4)o3)cn2)nnn1C)c1cc(F)cnc1F [Compound 280, (R)-1-(2,5-difluoropyridin-3-yl)ethyl (4-(5-(2-cyclopropyloxazole-5-carboxamido)pyridin-2-yl)-1-methyl-1H-1,2,3-triazol-5-yl)carbamate] was tested. Which EC50 did it give?
Answer: 98.7 nM

Question: C[C@@H](OC(=O)Nc1c(-c2ccc(NC(=O)C34CC(F)(C3)C4)cn2)nnn1C)c1cc(F)cnc1F [Compound 163, (R)-1-(2,5-difluoropyridin-3-yl)ethyl (4-(5-(3-fluorobicyclo[1.1.1]pentane-1-carboxamido)pyridin-2-yl)-1-methyl-1H-1,2,3-triazol-5-yl)carbamate] was tested. Which EC50 did it give?
Answer: 32.6 nM

Question: Which EC50 does the source give for C[C@@H](OC(=O)Nc1c(-c2ccc(NC(=O)C3(C#N)CCNCC3)cn2)nnn1C)c1cc(F)cnc1F [Compound 299, (R)-1-(2,5-difluoropyridin-3-yl)ethyl (4-(5-(4-cyanopiperidine-4-carboxamido)pyridin-2-yl)-1-methyl-1H-1,2,3-triazol-5-yl)carbamate] here?
Answer: 4990 nM

Question: Which EC50 does the source give for C[C@@H](OC(=O)Nc1c(-c2ccc(NC(=O)[C@H]3C[C@@H]3C)cn2)nnn1C)c1cc(F)cnc1F (mixture of isomers) [Compound 207, (R)-1-(2,5-difluoropyridin-3-yl)ethyl (1-methyl-4-(5-((1RS,2RS)-2-methylcyclopropane-1-carboxamido)pyridin-2-yl)-1H-1,2,3-triazol-5-yl)carbamate] here?
Answer: 41.2 nM

Question: How did the EC50 turn out when C[C@@H](OC(=O)Nc1c(-c2ccc(NC(=O)[C@H]3[C@@H]4CC(F)(F)C[C@@H]43)cn2)nnn1C)c1cc(F)cnc1F (racemic) [Compound 230, (R)-1-(2,5-difluoropyridin-3-yl)ethyl (4-(5-((1RS,5SR,6SR)-3,3-difluorobicyclo[3.1.0]hexane-6-carboxamido)pyridin-2-yl)-1-methyl-1H-1,2,3-triazol-5-yl)carbamate] was run?
Answer: 26.7 nM

Question: With C[C@@H](OC(=O)Nc1c(-c2ccc(NC(=O)c3cc(F)cnc3F)cn2)nnn1C)c1cc(F)cnc1F [Compound 241, (R)-1-(2,5-difluoropyridin-3-yl)ethyl (4-(5-(2,5-difluoronicotinamido)pyridin-2-yl)-1-methyl-1H-1,2,3-triazol-5-yl)carbamate] as the compound, how does the EC50 read?
Answer: 111 nM

Question: With C[C@@H](OC(=O)Nc1c(-c2ncc(NC(=O)C34CC(F)(C3)C4)cn2)nnn1C)c1cc(F)cnc1Cl [Compound 330, (R)-1-(2-chloro-5-fluoropyridin-3-yl)ethyl (4-(5-(3-fluorobicyclo[1.1.1]pentane-1-carboxamido)pyrimidin-2-yl)-1-methyl-1H-1,2,3-triazol-5-yl)carbamate] as the compound, how does the EC50 read?
Answer: 600 nM

Question: Which EC50 does the source give for CC(OC(=O)Nc1c(-c2ccc(NC(=O)C(F)(F)F)cn2)nnn1C)c1cc(Br)cnc1F (stereo not shown) [Compound 12, 1-(5-bromo-2-fluoropyridin-3-yl)ethyl (1-methyl-4-(5-(2,2,2-trifluoroacetamido)pyridin-2-yl)-1H-1,2,3-triazol-5-yl)carbamate] here?
Answer: 541 nM

Question: C[C@@H](OC(=O)Nc1c(-c2ccc(NC(=O)[C@H]3C[C@](O)(C#N)C3)cn2)nnn1C)c1cccnc1Cl [Compound 140, (R)-1-(2-chloropyridin-3-yl)ethyl (4-(5-((1s,3S)-3-cyano-3-hydroxycyclobutane-1-carboxamido)pyridin-2-yl)-1-methyl-1H-1,2,3-triazol-5-yl)carbamate] was tested. Which EC50 did it give?
Answer: 349 nM

Question: Which EC50 does the source give for C[C@@H](OC(=O)Nc1c(-c2ccc(NC(=O)[C@H]3C[C@@H]3C3CC3)cn2)nnn1C)c1cc(F)cnc1F [Compound 268, (R)-1-(2,5-difluoropyridin-3-yl)ethyl (4-(5-((1R,2S)-[1,1′-bi(cyclopropane)]-2-carboxamido)pyridin-2-yl)-1-methyl-1H-1,2,3-triazol-5-yl)carbamate] here?
Answer: 7.3 nM

Question: C[C@@H](OC(=O)Nc1c(-c2ncc(NC(=O)C3(C#N)CC3)cn2)nnn1C)c1cccnc1Cl [Compound 2, [(1R)-1-(2-chloro-3-pyridyl)ethyl] N-[5-[5-[(1-cyanocyclopropanecarbonyl)amino]pyrimidin-2-yl]-3-methyl-triazol-4-yl]carbamate] was tested. Which EC50 did it give?
Answer: 953 nM

Question: Cc1cnccc1C(=O)Nc1ccc(-c2nnn(C)c2NC(=O)O[C@H](C)c2cccnc2Cl)nc1 [Compound 101, (R)-1-(2-chloropyridin-3-yl)ethyl (1-methyl-4-(5-(3-methylisonicotinamido)pyridin-2-yl)-1H-1,2,3-triazol-5-yl)carbamate] was tested. Which EC50 did it give?
Answer: 1040 nM
